Results taken from article PMC6199744, “Development of Chemical Proteomics for the Folateome and Analysis of the Kinetoplastid Folateome” (ACS Infectious Diseases, 2018).
Like-named read-outs stand apart in the source and are kept apart here.

Key:
Format in all cases: binding
[1] = target: T1, HeLa cell extract proteins (Homo sapiens, UniProt P55795)
T1 construct: endogenous in cells; host or cells: HeLa cell extract
T1 sequence (P55795 1-449): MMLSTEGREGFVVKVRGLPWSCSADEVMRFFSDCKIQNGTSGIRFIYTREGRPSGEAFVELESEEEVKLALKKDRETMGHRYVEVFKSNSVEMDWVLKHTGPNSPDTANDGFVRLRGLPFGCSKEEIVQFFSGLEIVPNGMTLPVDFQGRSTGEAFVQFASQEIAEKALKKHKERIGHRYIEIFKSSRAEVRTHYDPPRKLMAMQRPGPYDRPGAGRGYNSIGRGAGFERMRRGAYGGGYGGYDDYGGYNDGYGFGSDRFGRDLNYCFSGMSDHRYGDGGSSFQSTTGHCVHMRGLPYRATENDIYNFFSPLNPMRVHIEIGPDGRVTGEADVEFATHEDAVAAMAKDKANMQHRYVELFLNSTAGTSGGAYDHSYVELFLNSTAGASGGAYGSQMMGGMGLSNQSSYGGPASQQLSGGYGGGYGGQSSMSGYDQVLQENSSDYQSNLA

[2] = target: T2, HeLa cell extract proteins (Homo sapiens, UniProt Q96AE4)
T2 construct: endogenous in cells; host or cells: HeLa cell extract
T2 sequence (Q96AE4 1-644): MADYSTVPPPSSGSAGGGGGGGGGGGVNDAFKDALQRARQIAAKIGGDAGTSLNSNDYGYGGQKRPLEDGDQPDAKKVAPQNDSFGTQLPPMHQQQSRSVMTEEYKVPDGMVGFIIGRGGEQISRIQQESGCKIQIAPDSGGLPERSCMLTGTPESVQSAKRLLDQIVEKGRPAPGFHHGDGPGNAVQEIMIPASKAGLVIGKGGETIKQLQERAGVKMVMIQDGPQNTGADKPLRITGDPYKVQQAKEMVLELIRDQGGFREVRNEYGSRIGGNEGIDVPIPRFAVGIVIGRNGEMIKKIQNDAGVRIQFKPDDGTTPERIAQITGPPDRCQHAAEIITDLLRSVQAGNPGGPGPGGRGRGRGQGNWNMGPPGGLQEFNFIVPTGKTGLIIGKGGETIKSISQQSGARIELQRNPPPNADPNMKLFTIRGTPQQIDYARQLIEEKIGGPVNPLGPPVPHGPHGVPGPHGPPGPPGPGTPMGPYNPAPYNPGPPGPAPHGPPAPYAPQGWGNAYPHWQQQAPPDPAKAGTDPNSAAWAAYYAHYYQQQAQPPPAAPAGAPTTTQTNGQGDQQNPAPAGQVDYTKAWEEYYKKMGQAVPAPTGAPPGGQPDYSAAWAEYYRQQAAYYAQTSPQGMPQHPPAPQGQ

[3] = target: T3, HeLa cell extract proteins (Homo sapiens, UniProt O00408)
T3 construct: endogenous in cells; host or cells: HeLa cell extract

[4] = target: T4, HeLa cell extract proteins (Homo sapiens, UniProt Q01518)
T4 construct: endogenous in cells; host or cells: HeLa cell extract

[5] = target: T5, HeLa cell extract proteins (Homo sapiens, UniProt Q08209)
T5 construct: endogenous in cells; host or cells: HeLa cell extract

[6] = target: T6, HeLa cell extract proteins (Homo sapiens, UniProt Q9NTG7)
T6 construct: endogenous in cells; host or cells: HeLa cell extract
T6 sequence (Q9NTG7 1-399): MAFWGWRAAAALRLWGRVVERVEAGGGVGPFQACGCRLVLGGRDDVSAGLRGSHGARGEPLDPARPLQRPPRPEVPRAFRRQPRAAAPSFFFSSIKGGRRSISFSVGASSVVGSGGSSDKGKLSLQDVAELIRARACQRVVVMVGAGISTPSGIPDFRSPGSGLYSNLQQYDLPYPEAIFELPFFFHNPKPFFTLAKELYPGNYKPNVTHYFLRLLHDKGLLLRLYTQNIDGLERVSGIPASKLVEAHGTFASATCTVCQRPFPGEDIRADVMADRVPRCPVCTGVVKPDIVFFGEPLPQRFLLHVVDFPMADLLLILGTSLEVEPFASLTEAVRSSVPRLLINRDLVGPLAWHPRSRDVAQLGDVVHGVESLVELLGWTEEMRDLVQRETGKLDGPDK

[7] = target: T7, HeLa cell extract proteins (Homo sapiens, UniProt O95619)
T7 construct: endogenous in cells; host or cells: HeLa cell extract

[8] = target: T8, HeLa cell extract proteins (Homo sapiens, UniProt Q96EN8)
T8 construct: endogenous in cells; host or cells: HeLa cell extract
T8 sequence (Q96EN8 1-888): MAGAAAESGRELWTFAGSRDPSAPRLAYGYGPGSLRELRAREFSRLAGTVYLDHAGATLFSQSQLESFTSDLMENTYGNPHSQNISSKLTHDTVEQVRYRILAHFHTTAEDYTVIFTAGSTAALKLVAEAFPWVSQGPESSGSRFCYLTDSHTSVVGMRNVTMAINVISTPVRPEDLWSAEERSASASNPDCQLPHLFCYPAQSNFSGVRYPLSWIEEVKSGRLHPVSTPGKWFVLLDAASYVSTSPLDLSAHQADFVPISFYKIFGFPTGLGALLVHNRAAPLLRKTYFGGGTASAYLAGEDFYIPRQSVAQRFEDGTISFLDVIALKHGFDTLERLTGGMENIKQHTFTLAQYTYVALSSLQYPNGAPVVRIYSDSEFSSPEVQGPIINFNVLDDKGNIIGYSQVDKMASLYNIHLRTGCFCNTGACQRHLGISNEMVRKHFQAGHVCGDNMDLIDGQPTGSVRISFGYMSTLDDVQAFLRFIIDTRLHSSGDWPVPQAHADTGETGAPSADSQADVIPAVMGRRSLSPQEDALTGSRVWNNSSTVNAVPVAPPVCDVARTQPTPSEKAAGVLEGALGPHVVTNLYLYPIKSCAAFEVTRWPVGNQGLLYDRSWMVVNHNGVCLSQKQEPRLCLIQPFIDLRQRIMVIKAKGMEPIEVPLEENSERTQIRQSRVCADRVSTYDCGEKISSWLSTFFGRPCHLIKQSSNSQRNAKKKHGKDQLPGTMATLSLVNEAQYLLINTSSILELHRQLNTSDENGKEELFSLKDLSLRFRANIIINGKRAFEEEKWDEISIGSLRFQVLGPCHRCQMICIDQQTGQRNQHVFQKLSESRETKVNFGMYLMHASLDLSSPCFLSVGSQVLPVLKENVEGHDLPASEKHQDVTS

[9] = target: T9, HeLa cell extract proteins (Homo sapiens, UniProt P62195)
T9 construct: endogenous in cells; host or cells: HeLa cell extract

[10] = target: T10, HeLa cell extract proteins (Homo sapiens, UniProt O75947)
T10 construct: endogenous in cells; host or cells: HeLa cell extract
T10 sequence (O75947 whole entry): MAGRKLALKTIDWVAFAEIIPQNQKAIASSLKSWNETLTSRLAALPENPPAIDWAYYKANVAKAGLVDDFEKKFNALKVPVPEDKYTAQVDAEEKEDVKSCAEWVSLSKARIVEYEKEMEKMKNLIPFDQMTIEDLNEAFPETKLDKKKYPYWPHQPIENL

T4 sequence (Q01518 whole entry): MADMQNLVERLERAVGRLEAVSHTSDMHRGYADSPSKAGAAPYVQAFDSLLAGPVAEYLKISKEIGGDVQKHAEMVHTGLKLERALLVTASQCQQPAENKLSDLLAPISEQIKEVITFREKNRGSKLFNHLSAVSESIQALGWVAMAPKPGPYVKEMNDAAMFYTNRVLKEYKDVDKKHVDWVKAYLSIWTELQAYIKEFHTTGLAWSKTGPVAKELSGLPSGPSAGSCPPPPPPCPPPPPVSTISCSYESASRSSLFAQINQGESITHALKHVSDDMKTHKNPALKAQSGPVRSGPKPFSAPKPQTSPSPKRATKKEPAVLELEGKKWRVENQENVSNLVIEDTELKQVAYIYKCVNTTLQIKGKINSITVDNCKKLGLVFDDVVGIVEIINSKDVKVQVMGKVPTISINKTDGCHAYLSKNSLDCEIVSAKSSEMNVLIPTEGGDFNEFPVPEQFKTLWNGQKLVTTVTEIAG
T3 sequence (O00408 whole entry): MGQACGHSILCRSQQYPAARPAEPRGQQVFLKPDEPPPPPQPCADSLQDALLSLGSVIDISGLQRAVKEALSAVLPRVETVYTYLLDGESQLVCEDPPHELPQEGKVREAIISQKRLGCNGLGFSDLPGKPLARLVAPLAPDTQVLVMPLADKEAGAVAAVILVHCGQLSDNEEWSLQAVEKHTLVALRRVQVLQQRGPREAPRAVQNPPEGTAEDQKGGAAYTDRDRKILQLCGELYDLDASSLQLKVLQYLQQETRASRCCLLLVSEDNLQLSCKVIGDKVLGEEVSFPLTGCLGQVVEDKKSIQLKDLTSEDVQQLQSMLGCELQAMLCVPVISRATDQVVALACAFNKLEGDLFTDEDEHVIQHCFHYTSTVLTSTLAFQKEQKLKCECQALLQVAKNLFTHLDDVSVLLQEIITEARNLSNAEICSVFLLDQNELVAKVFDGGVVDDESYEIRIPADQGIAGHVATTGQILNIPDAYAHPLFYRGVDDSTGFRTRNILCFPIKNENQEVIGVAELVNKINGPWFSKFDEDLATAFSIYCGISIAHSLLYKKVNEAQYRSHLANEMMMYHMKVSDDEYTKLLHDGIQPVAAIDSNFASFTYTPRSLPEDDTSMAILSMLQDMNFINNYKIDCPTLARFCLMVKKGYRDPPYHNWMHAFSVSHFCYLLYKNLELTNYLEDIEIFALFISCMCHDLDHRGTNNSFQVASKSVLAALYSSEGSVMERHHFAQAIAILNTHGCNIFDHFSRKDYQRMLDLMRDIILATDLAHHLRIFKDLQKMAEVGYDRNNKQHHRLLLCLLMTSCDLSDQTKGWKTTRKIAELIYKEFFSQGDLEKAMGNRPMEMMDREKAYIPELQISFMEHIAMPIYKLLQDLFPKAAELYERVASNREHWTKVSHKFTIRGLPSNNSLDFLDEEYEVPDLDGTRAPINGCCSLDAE
T7 sequence (O95619 whole entry): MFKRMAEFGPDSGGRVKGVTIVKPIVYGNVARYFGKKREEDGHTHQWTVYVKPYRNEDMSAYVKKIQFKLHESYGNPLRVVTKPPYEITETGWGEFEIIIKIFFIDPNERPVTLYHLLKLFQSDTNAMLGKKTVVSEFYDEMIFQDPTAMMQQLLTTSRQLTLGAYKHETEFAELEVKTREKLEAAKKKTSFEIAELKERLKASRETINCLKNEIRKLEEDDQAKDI
T9 sequence (P62195 whole entry): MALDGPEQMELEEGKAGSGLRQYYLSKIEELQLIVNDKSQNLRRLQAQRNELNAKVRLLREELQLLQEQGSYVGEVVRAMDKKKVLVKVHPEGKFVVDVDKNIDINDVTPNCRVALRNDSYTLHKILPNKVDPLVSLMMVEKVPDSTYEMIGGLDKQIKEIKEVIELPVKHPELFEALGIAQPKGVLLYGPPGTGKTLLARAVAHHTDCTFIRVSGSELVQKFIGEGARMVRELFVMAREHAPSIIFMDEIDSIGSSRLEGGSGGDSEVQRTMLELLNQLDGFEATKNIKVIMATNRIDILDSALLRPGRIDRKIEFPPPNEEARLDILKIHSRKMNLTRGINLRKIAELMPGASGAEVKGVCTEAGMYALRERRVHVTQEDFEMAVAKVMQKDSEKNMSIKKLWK

SMILES | fold changes relative to vehicle control ([1]; protein HNRNPH2, HeLa) | fold changes relative to vehicle control ([2]; protein FUBP1, HeLa) | fold changes relative to vehicle control ([3]; protein PDE2A, HeLa) | fold changes relative to vehicle control ([4]; protein CAP1, HeLa) | fold changes relative to vehicle control ([5]; HeLa, protein PPP3CA) | fold changes relative to vehicle control ([6]; protein SIRT3, HeLa) | fold changes relative to vehicle control ([7]; HeLa, protein YEATS4) | fold changes relative to vehicle control ([8]; HeLa, protein MOCOS) | fold changes relative to vehicle control ([9]; protein PSMC5, HeLa) | fold changes relative to vehicle control ([10]; protein ATP5H, HeLa) | fold changes relative to vehicle control ([1]; HeLa, captured protein HNRNPH2) | fold changes relative to vehicle control ([2]; HeLa, captured protein FUBP1) | fold changes relative to vehicle control ([4]; HeLa, protein CAP1) | fold changes relative to vehicle control ([6]; HeLa, captured protein SIRT3) | fold changes relative to vehicle control ([7]; HeLa, captured protein YEATS4) | fold changes relative to vehicle control ([9]; HeLa, protein PSMC5) | fold changes relative to vehicle control ([10]; HeLa, captured protein ATP5H) | further results
CCCCCCOc1cccc(Cc2cnc(N)nc2N)c1 [compound 2] | 0.96 | 1.48 | 1.7 | 2.26 | 1.13 | 1 | 0.92 | 1.11 | 1.36 | 0.88 |  |  |  |  |  |  |  | 
NCCOCCOCC(=O)Nc1nc2ncc(CNc3ccc(C(=O)NC(CCC(=O)O)C(=O)O)cc3)nc2c(=O)[nH]1 (stereo not shown) [compound 6] |  |  | 0.79 |  | 0.95 |  |  | 1.11 |  |  | 0.83 | 1.28 | 1.26 | 0.77 | 0.81 | 1.12 | 0.92 | 
CCCCCCOc1ccc(Cc2cnc(N)nc2N)cc1 [compound 1] | 0.93 | 1.24 | 0.61 | 1.19 | 1.1 | 1 | 1.04 | 1.03 | 1.07 | 1.11 |  |  |  |  |  |  |  | 
Nc1nc2c(c(=O)[nH]1)N(C=O)C(CNc1ccc(C(=O)N[C@@H](CCC(=O)O)C(=O)O)cc1)CN2 (stereo partly shown) [LEU, leucovorin] |  |  | 0.73 |  | 0.97 |  |  | 1.07 |  |  | 0.9 | 1.09 | 1 | 1 | 1.09 | 1.02 | 0.91 | 
NCCCNc1ccc(C(=O)NC(CCC(=O)O)C(=O)O)cc1 (stereo not shown) [compound 7] |  |  | 0.7 |  | 0.85 |  |  | 1.06 |  |  | 0.91 | 1 | 0.94 | 0.92 | 1.29 | 1.04 | 0.96 | 
Nc1nc2[nH]cc(CCc3ccc(C(=O)N[C@@H](CCC(=O)O)C(=O)O)cc3)c2c(=O)[nH]1 [PTX, pemetrexed] |  |  |  |  |  |  |  |  |  |  |  |  |  |  |  |  |  | fold changes relative to vehicle control [1]: 0.82; fold changes relative to vehicle control [2]: 1.17; fold changes relative to vehicle control [3]: 0.71; fold changes relative to vehicle control [4]: 1.12; fold changes relative to vehicle control [5]: 0.91; fold changes relative to vehicle control [6]: 0.95; fold changes relative to vehicle control [7]: 0.99; fold changes relative to vehicle control [8]: 1.01; fold changes relative to vehicle control [9]: 1.03; fold changes relative to vehicle control [10]: 1.03
Nc1nc2cccc(-c3ccccc3)c2n1Cc1ccc(Cl)c(Cl)c1 [compound 3] | 1.05 | 1 | 0.64 | 0.73 | 1.03 | 1.16 | 0.99 | 0.96 | 1.05 | 0.94 |  |  |  |  |  |  |  | 
